The source of these data is US8069687B2, “Working media for refrigeration processes” (priority 2005, dated 2011).

Data set [1] in a line: Absorption isotherm: partial pressure of 2,2,2-trifluoroethanol over sorbent material at 70° C. It is filed as physicochemical. The text has this: Absorption isotherms result from the amount of a volatile component (here the refrigerant) which, at a predetermined temperature and at pressures which are generally lower than the vapor pressure of the pure refrigerant; dissolves, in an equilibrium state, in a very high-boiling or nonvolatile liquid (here the sorbent material). The pairs of values of concentration of the liquid binary mixture and the pressure of the volatile component over the liquid at a given temperature thereby give an absorption isotherm. […] In the absorption refrigerating machines considered here, a sorbent material shall absorb the refrigerant after its expansion and vaporization at a low pressure. An advantageous sorbent material, at a given pressure, takes up as much refrigerant as possible, whereupon the volume and the masses of the circulating streams minimize (or lower pressure for the same composition). This leads to the fact that the unit achieves a higher degree of efficiency and can be more advantageous with respect to its dimensions and also the amount of absorber used.
The measurements were carried out at 70° C.

The nature of data set [2]: Absorption isotherm: partial pressure of R134a over sorbent material at 20° C. It is filed as physicochemical. The source says: Absorption isotherms result from the amount of a volatile component (here the refrigerant) which, at a predetermined temperature and at pressures which are generally lower than the vapor pressure of the pure refrigerant; dissolves, in an equilibrium state, in a very high-boiling or nonvolatile liquid (here the sorbent material). The pairs of values of concentration of the liquid binary mixture and the pressure of the volatile component over the liquid at a given temperature thereby give an absorption isotherm. Such absorption isotherms of high-boiling or nonvolatile liquid substances can be measured using various dynamic or static experimental methods of which, here, by way of example reference is made to a dynamic, gravimetric method, as was presented by Sadowski G., Mokrushina L. V., Arlt, W., “Finite and infinite dilution activity coefficients in polycarbonate systems”, Fluid Phase Equilibria, 139 (1997) 391-493. In the absorption refrigerating machines considered here, a sorbent material shall absorb the refrigerant after its expansion and vaporization at a low pressure. An advantageous sorbent material, at a given pressure, takes up as much refrigerant as possible, whereupon the volume and the masses of the circulating streams minimize (or lower pressure for the same composition). This leads to the fact that the unit achieves a higher degree of efficiency and can be more advantageous with respect to its dimensions and also the amount of absorber used.
The measurements were carried out at 20° C.

For data set [3] the following is noted: as described by N. Bicak; cited from earlier work.
For data set [4] the following is noted: 25° C.; as described by N. Bicak; cited from earlier work.
Excerpt in data set [5]: If, as described in • W. Pennington; How to find accurate vapor pressures of lithium bromide water solutions; Refrig. Eng. 63 (May 1955) 57-61 or • D. A. Boryta, A. J. Maas, C. B. Grant; Vapor pressure-temperature-concentration relationship for system lithium bromide and water (40-70% lithium bromide); J. Chem. Eng. Data 20 (1975) 316-319 or • S. Iyoki, T. Uemura; Vapor pressure of the water-lithium bromide system and water-lithium bromide-zinc bromide-lithium chloride system at high temperatures; Int. […] In the prior art, the use of LiBr as absorbent and water as refrigerant is very widespread.
(§1) If, as described in • W. Pennington; How to find accurate vapor pressures of lithium bromide water solutions; Refrig. Eng. 63 (May 1955) 57-61 or • D. A. Boryta, A. J. Maas, C. B. Grant; Vapor pressure-temperature-concentration relationship for system lithium bromide and water (40-70% lithium bromide); J. Chem. Eng. Data 20 (1975) 316-319 or • S. Iyoki, T. Uemura; Vapor pressure of the water-lithium bromide system and water-lithium bromide-zinc bromide-lithium chloride system at high temperatures; Int.
as §1, with “Ethoxylated cocodiethanolammonium chloride is an ionic liquid which can be obtained under the name TEGO IL K5 from Degussa AG. If,” for “If,”
as §1, with “The ionic liquid diethylpolypropoxymethylammonium chloride can be obtained from Degussa AG under the name TEGO IL P9. If,” for “If,”
as §1

A short description of data set [6]: Crystallization of the sorbent in water. It is filed as physicochemical. The conditions noted are these: T≧20° C.; concentrations greater than 65 mass % ionic liquid in water.
For data set [7] the following is noted: in vivo; cited from earlier work.
The conditions of data set [8]: depending on system temperature; prior art; cited from earlier work.
Setting [9] is: mass fraction of ionic liquid 0.20.
Where [10] appears, read: mass fraction of ionic liquid 0.40.
Setting [11] is: mass fraction of ionic liquid 0.60.
Where [12] appears, read: mass fraction of ionic liquid 0.80.
[13] abbreviates: mass fraction of the sorbent material 0.20.
The mark [14] stands for this setting: mass fraction of the sorbent material 0.40.
Where [15] appears, read: mass fraction of the sorbent material 0.60.
Where [16] appears, read: mass fraction of the sorbent material 0.80.
[17] abbreviates: 20° C., 80 mass % ionic liquid and 20 mass % water.
Where [18] appears, read: 20° C., 80 mass % ionic liquid and 20 mass % water, pure water 23.37 mbar.
The mark [19] stands for this setting: 40° C., 92 mass % ionic liquid and 8 mass % water.

Like-named read-outs stand apart in the source and are kept apart here.

One may read the LD50 as the dose expected to kill half of the subjects tested.

As for “1,3-dimethylimidazolium dimethyl phosphate [MMIM MMPO4]”, the “Partial pressure of 2,2,2-trifluoroethanol” value turned out to be 39.7 kPa in data set [1] (setting [9]), 10.7 kPa in [1] (setting [10]), 3.2 kPa in data set [1] (setting [11]) and 0.8 kPa in data set [1] (setting [12]). For the same molecule, the “Partial pressure of R134a” value in data set [2] (setting [13]) is 439 kPa; in [2] (setting [14]), 303 kPa; in [2] (setting [15]) it was 164 kPa; in data set [2] (setting [16]) it was 57 kPa.
As to `NCCO.O=CO` [2-Hydroxyethylammonium formate], the “thermal stability, upper temperature” value in data set [3] is “up to 150 °C”. Also, in [4], the vapor pressure is recorded as 2.2×10^−2 torr. The stability to hydrolysis result in the data set “Stability to hydrolysis” was “comparatively poor stability to hydrolysis”.
As for `CCCCn1cc[n+](C)c1.F[B-](F)(F)F` [BMIM BF4, 1-butyl-3-methylimidazolium tetrafluoroborate, reference compound], the “Partial pressure of 2,2,2-trifluoroethanol” value in [1] (setting [9]) worked out at 70.2 kPa; in data set [1] (setting [10]) it was 53.0 kPa; in data set [1] (setting [11]) it was 35.9 kPa; in [1] (setting [12]) it was 18.0 kPa.
In the same order, the values of `CCCCn1cc[n+](C)c1.[Br-]` [BMIM Br, 1-butyl-3-methylimidazolium bromide, reference compound] are 42.2 kPa, 15.1 kPa, 5.6 kPa and 1.6 kPa.
On to `CCn1cc[n+](C)c1.[Cl-]` [EMIM Cl], for which the “Partial pressure of 2,2,2-trifluoroethanol” value in [1] (setting [9]) worked out at 19.3 kPa; in data set [1] (setting [10]) it was 4.0 kPa; in [1] (setting [11]), 1.0 kPa; in data set [1] (setting [12]) it was 0.2 kPa. Besides, the “Partial pressure of R134a” value in data set [2] (setting [13]) is listed as 327 kPa; in [2] (setting [14]), 135 kPa; in [2] (setting [15]), 37 kPa; in data set [2] (setting [16]), 7 kPa.
As to `CCn1cc[n+](C)c1` [EMIM EtSO4], the “Partial pressure of R134a” value in [2] (setting [13]) was 360 kPa. The molecule further returned a water partial pressure in data set [5] (setting [17]) of 15 mbar. Besides, in [5] (setting [18]), the “factor by which the vapor pressure of pure water was lowered” value (from here on “factor … of pure water was lowered”) is listed as 1.56. Also, in [6], the crystallization in water entry is reported as “does not crystallize out”. Besides, the median lethal dose (LD50) in data set [7] is given as over 2000 mg/kg.
With `CCn1cc[n+](C)c1.CS(=O)(=O)[O-]` [EMIM MeSO3], the “Partial pressure of 2,2,2-trifluoroethanol” value came out at 39.7 kPa in [1] (setting [9]), 13.5 kPa in data set [1] (setting [10]), 4.6 kPa in data set [1] (setting [11]) and 1.2 kPa in data set [1] (setting [12]). The water partial pressure in data set [5] (30° C., 87 mass % ionic liquid and 13 mass % water) turned out to be 9 mbar. Besides, the “factor … of pure water was lowered” value in data set [5] (30° C., 87 mass % ionic liquid and 13 mass % water, pure water 42.41 mbar) was 4.7. The crystallization in water entry in data set [6] is reported as “does not crystallize out”.
As for `CC(=O)[O-].CCn1cc[n+](C)c1` [EMIM OAc], the “Partial pressure of 2,2,2-trifluoroethanol” value amounted to 24.7 kPa in [1] (setting [9]), 3.7 kPa in data set [1] (setting [10]), 0.8 kPa in data set [1] (setting [11]) and 0.2 kPa in data set [1] (setting [12]). For the same molecule, the “Partial pressure of R134a” value in data set [2] (setting [13]) was found to be 360 kPa; in [2] (setting [14]), 175 kPa; in data set [2] (setting [15]) it was 66 kPa; in [2] (setting [16]), 17 kPa.
With `CCn1cc[n+](C)c1.[OH-]` [EMIM OH], the “Partial pressure of 2,2,2-trifluoroethanol” value in [1] (setting [9]) is 5.0 kPa; in [1] (setting [10]) it was under 0.1 kPa; in data set [1] (setting [11]) it was under 0.1 kPa; in [1] (setting [12]) it was under 0.1 kPa. Also, the “Partial pressure of R134a” value in [2] (setting [13]) was 345 kPa; in data set [2] (setting [14]), 112 kPa; in [2] (setting [15]), 20 kPa; in data set [2] (setting [16]) it was 3 kPa.
`[Br-].[Li+]` [LiBr, lithium bromide]: the “LiBr concentration above which LiBr crystallizes in water” value in [8] was “above 60 mass %”.
`CCCC[n+]1ccc(C)cc1.[Cl-]` [MBP Cl, 1-butyl-4-methylpyridinium chloride]: the “Partial pressure of 2,2,2-trifluoroethanol” value in [1] (setting [9]) was determined as 25.2 kPa; in data set [1] (setting [10]), 5.0 kPa; in data set [1] (setting [11]), 1.3 kPa; in data set [1] (setting [12]) it was 0.3 kPa.
In the case of `C[N+](C)(CCO)CCO.[Cl-]` [Salt A, bis(2-hydroxyethyl)dimethylammonium chloride], the “Partial pressure of 2,2,2-trifluoroethanol” value came out at 33.0 kPa in data set [1] (setting [9]), 11.1 kPa in data set [1] (setting [10]), 3.6 kPa in data set [1] (setting [11]) and 0.7 kPa in data set [1] (setting [12]).
For the molecule `CS(=O)(=O)[O-].C[N+](C)(CCO)CCO` [Salt B, bis(2-hydroxyethyl)dimethylammonium methylsulfonate], the results for the “Partial pressure of 2,2,2-trifluoroethanol” value in data set [1] (setting [9]) and in [1] (setting [12]) were 42.0 kPa and 1.6 kPa, respectively. Further, the figures for the water partial pressure in [5] (setting [17]) and in data set [5] (setting [19]) were 14 mbar and “approximately 13.9 mbar”, respectively. For the same molecule, in data set [5] (setting [19]), the “pressure reduction factor compared with the vapor pressure of pure water” value was found to be 5.3. In addition, the crystallization in water entry in data set [6] is recorded as “does not crystallize out”.
As to “diethylpolypropoxymethylammonium chloride [TEGO IL P9]”, in data set [5] (30° C., 94 mass % ionic liquid and 6 mass % water), the water partial pressure is 6 mbar. For the same molecule, the “factor by which the vapor pressure of pure water was decreased” value in data set [5] (30° C., 94 mass % ionic liquid and 6 mass % water, pure water 42.41 mbar) was determined as 7.07. The crystallization in water result in data set [6] is given as “does not crystallize out”.
In the case of “ethoxylated cocodiethanolammonium chloride [TEGO IL K5]”, in data set [5] (setting [17]), the water partial pressure was 17 mbar. For the same molecule, the “factor … of pure water was lowered” value in data set [5] (setting [18]) is reported as 1.38. In addition, in data set [6], the crystallization in water result is “does not crystallize out”.
